Patent US20030095982A1, “Fraction of Cordyceps sinensis and method of isolation thereof” (priority 2001, published 2003)

Tests used:
[1] = system: ovalbumin (OA) induced bronchial hyperresponsiveness; test: Pulmonary function test, OA sensitized and challenged BALBc mice; assay type: in vivo
Description: In the nonanesthetized condition, 24 hours after airway challenge by 3 mL 1% OA aerosol, pulmonary function testing (PET) was measured by WBP at baseline and after methacholine (Mch) inhalation challenge. Four hours after PET in a nonanesthetized condition, all animals were anesthetized with sodium pentobarbitone (50 mg/kg intraperitoneally). Jugular vein cannulation (PE-10 polyethylene tube filled with heaprin, 1000 iu/mL in normal saline) and tracheostomy were performed. The animals were put in a body box (anesthetized small animal body box, Buxco, USA) in a supine position. Gallamine triethiodide (4 mg/kg) was injected intravenously to induce paralysis and inhibit spontaneous breathing. A small animal ventilator set at a tidal volume 6 mL/kg and a respiratory rate of 120 times/minute was used to ventilate the animals by room air. All animals were stable without spontaneous breathing 5 minutes after gallamine was given. Pulmonary function tests, including flow volume loop, peak airway opening pressure (PaO), and gas flow to calculate total dynamic lung compliance, were examined at baseline. Thereafter, 25, 50, 75 and 100 μg/kg of acetylcholine were given intravenously at 30 minute intervals. Pulmonary function test were done 5 seconds after each dose of acetylcholine. Before each dose of acetylcholine the flow volume loop returned to baseline.
The PaO was measured by a Gould pressure transducer at the tracheostomy. PaO was defined as opening airway pressure during tidal breathing when a small animal ventilator was used (tidal volume 6 mL/kg, respiratory rate 120 times/minute). Respiratory flow was measured by a DP-45-14 differential pressure transducer.
For the maximal forced expiratory maneuver (MFEM), the lungs were inflated to total lung capacity (TLC, lung volume at PaO =35 cm H2O) 3 times; the inflation was regulated by a solenoid valve. At peak volume during the third inflation, the inflation valve was shut off and the other solenoid valve was used immediately for deflation. The deflation valve was connected to a 20 liter container with a pressure of −40 cm H2O (subatmospheric). The negative pressure produced maximal expiratory flow (Vmax). The changes in flow, volume and PaO were recorded by a 7P1, 7P10 preamplifier (Grass instrument Company, USA) from the body box and flow volume was stored in an oscilloscope (Hitachi Den Shi America Ltd, New York, USA). The parameters of the flow volume loop (FV loop), including peak flow (the maximal flow rate of the FV loop), MFEF75% (the flow rate at 75% TLC), MFEF50% (the flow rate at 50% TLC) and MFEF25% (the flow rate at 25% TLC) were recorded.
PD20MFEF50%Ach is the dose of acetylcholine required to produce a decrease in MFEF50% of 20% from baseline. PD20MFEF25%Ach is the dose required to produce a decrease in MFEF25% of 20% from baseline. PD50PaOAch is the dose required to produce an increase in PaO of 50% from baseline. PD50CdynAch is the dose required to produce a decrease in Cdyn of 50% from baseline. PD50RawAch is the dose required to produce an increase in Raw of 50% from baseline after acetylcholine was given.
TLC and residual volume (RV) were defined as the gas volume in the lungs at airway pressures of +30 cm H2O (TLC) and −10 cm H2O (RV) respectively. The lungs were deflated to RV by connecting one port of the respiratory valve to a 4-liter reservoir at −10 cm H2O; the valve was then turned, and the lungs were inflated from a syringe to TLC. The volume necessary to inflate the lungs from −10 to 30 cm H2O was read from the syringe and was recorded as the vital capacity (VC). A specific measurement sequence was used throughout the study. VC was determined three times and then TLC was measured three times each. The average valve of the three measurements was reported.
Lung volumes (such as TLC and FRC) were also measured using the gas (Neon) dilution principle. […]

[2] = system: ovalbumin (OA) induced bronchial hyperresponsiveness; test: Bronchoalveolar lavage cell counts, OA model in BNR; assay type: in vivo, brown Norway rats (BNR)
Description: After completion of the pulmonary function tests, BAL was performed using 10 mL normal saline twice (total 20 mL) for BNR or guinea pig. The BAL fluid was collected into plastic flasks containig 1,500 units of heparin and then strained through 1 layer of surgical gauze and centrifuged at 500 g for 5 min. The cell pellet was washed 3 times with sterile saline solution and resuspended in RPMI-1640. A small portion was taken for evaluation of cell number and viability, as assessed by trypan blue exclusion.
Differential counts were obtained using a cytocentrifuge preparation (Cytospin; Shandon Southern Instruments, Sewickley, Pa.) stained with Liu's stain (modified May-Giemsa stain).

[3] = BALBc mice, baseline, 4 mg/Kg intraperitoneally 30 minutes before OA inhalation provocation, mean±SD
[4] = BAL fluid, 4 mg/Kg intraperitoneally 30 minutes before OA inhalation provocation

In the case of `CC(C)[C@@H](C)C=C[C@@H](C)[C@H]1CC[C@H]2C3=C[C@@H](O)[C@@]4(O)C[C@@H](O)CC[C@]4(C)[C@H]3CC[C@]12C` [F8, (24R)-ergosta-7,22-diene-3β, 5α, 6β,-triol], the “percentage of baseline MFEF 50% TLC, Ach dose response” value ([1]; BALB/c mice, pretreated before OA inhalation provocation (group I) vs OA-treated (group II), Ach doses higher than 25 μg/kg) is reported as “group II was significantly lower then group I”, the “Cdyn (total dynamic lung compliance)” value [1, 3] is reported as 0.42 ± 0.04 mL/cmH2O and the “FEV 0.1” value [1, 3] is reported as 1.26 ± 0.17 mL. The “MFEF 25%” value [1, 3] was 6.06 ± 1.59 mL/s, the “MFEF 50%” value [1, 3] was 14.58 ± 1.31 mL/s and the “MFEF 75%” value [1, 3] was 19.94 ± 2.53 mL/s. The “PaO (airway opening pressure at tidal breathing)” value [1, 3] was 3.8 ± 0.5 cmH2O, the Peak flow [1, 3] was 22.64 ± 2.07 mL/s and the TLC [1, 3] was 1.68 ± 0.25 mL. The Vital capacity [1, 3] was 1.29 ± 0.11 mL, the “baseline flow volume loop parameters (MFEF 50%TLC, MFEF 25%TLC, Cdyn) versus group II” value ([1]; mice, treatment study (administered after OA challenge), p<0.05) was “lower in group II when compared with group I and III” and the “Eosinophil Cell count” value [2, 4] was 4.26 ± 0.5 (×10^4)/mL. For the same molecule, the “Eosinophil Percentage of total cell count (%)” value [2, 4] was 28.8 ± 4.5 %, the “Lymphocyte Cell count” value [2, 4] was 3.37 ± 0.51 (×10^4)/mL and the “Lymphocyte Percentage of total cell count (%)” value [2, 4] was 22.8 ± 4.5 %. For the same molecule, the “Macrophage Cell count” value [2, 4] was 6.85 ± 0.64 (×10^4)/mL, the “Macrophage Percentage of total cell count (%)” value [2, 4] was 46.3 ± 5.5 % and the “Neutrophil Cell count” value [2, 4] was 0.31 ± 0.4 (×10^4)/mL. For the same molecule, the “Neutrophil Percentage of total cell count (%)” value [2, 4] was 2.1 ± 0.5%, the Total cell count [2, 4] was 14.8 ± 3.2 (×10^4)/mL and the “BAL total cell counts, eosinophils and lymphocytes versus group II” value ([2]; treatment study (administered after OA inhalation provocation)) was “Group II had higher total cell counts than the other 2 groups”.
